These results are taken from ChEMBL document CHEMBL1201862, “PubChem BioAssay data set” (2004).

Each structure is given as a SMILES string. Active and inactive are the calls of the source.

One data set relates to HEK293. Kind of data set: cells. The class given is functional, cell-based. The following applies: Homo sapiens.
In another data set the target is T1, Cysteine protease ATG4B (Homo sapiens, UniProt Q9Y4P1).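 Note: Fluorescence-based dose-response confirmation assay measuring inhibition of ATG4B activity.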
T1 sequence (Q9Y4P1 whole entry): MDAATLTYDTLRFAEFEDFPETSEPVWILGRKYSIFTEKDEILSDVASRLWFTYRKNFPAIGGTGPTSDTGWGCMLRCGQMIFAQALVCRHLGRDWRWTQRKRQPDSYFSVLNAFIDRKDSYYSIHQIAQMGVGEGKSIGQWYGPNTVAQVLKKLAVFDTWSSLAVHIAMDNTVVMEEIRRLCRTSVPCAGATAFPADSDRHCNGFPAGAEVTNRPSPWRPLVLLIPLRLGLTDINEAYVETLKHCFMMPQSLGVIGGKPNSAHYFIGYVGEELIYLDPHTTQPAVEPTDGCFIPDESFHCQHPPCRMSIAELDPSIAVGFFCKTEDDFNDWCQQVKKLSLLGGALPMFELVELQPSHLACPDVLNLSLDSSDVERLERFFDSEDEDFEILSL
In kind it is functional.

The nature of data set [1]: Luminescence Cell-Based Dose Response HTS to Identify Inhibitors of 5'UTR Stem-Loop Driven Prion Protein mRNA Translation in H4 Neuroglioblastoma Cells. [Related pubchem assays: 1827 (Project Summary), 1813 (Primary HTS)]. In kind it is functional.
Data set [2] addresses Platelet-derived growth factor receptor beta (Homo sapiens, UniProt P09619). The class given is functional.
Data set [3] concerns the target G protein-coupled receptor kinase 5 (Homo sapiens, UniProt P34947). The data set is described as follows: Navigating the Kinome. Panel member name: GPRK5. The class given is functional.
The target in data set [4] is Receptor tyrosine-protein kinase erbB-4 (Homo sapiens, UniProt Q15303). In kind it is functional.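 Note: ERBB4 member of a kinome-wide kinase profiling panel.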
In data set [5] the target is Mitogen-activated protein kinase 9 (Homo sapiens, UniProt P45984). In kind it is functional.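 Note: value from a kinome panel profiling assay, MAPK9 panel entry.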
The target of data set [6] is Interleukin-1 receptor-associated kinase 4 (Homo sapiens, UniProt Q9NWZ3). In kind it is functional.
In data set [7] the target is Cyclin-dependent kinase 7 (Homo sapiens, UniProt P50613). In kind it is functional.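 Note: value comes from a kinome-wide kinase profiling panel in which CDK7 is one member.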
Another data set concerns the target Aurora kinase B (Homo sapiens, UniProt Q96GD4). The class given is functional.
Data set [8] has as its target Mitogen-activated protein kinase 13 (Homo sapiens, UniProt O15264). In kind it is functional.
The target in data set [9] is Testis-specific serine/threonine-protein kinase 2 (Homo sapiens, UniProt Q96PF2). The class given is functional.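 Note: part of the Navigating the Kinome panel, target entry STK22B.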
The target of the next data set is Activated CDC42 kinase 1 (Homo sapiens, UniProt Q07912). The data set is described as follows: Navigating the Kinome. Panel member name: ACK1. The class given is functional.
Data set [10] deals with Receptor-type tyrosine-protein kinase FLT3 (Homo sapiens, UniProt P36888). In kind it is functional.
The target in data set [11] is Mitogen-activated protein kinase 14 (Homo sapiens, UniProt Q16539). The class given is functional.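 Note: part of a kinome-wide panel, MAPK14 entry.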
In data set [12] the target is Non-receptor tyrosine-protein kinase TYK2 (Homo sapiens, UniProt P29597). In kind it is functional.
Data set [13] addresses MAP kinase-activated protein kinase 3 (Homo sapiens, UniProt Q16644). In kind it is functional.
The target in the next data set is Misshapen-like kinase 1 (Homo sapiens, UniProt Q8N4C8). The class given is functional.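 Note: kinome panel screen with MINK as the panel member.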
Sequence of Misshapen-like kinase 1 (Q8N4C8 whole entry, canonical isoform): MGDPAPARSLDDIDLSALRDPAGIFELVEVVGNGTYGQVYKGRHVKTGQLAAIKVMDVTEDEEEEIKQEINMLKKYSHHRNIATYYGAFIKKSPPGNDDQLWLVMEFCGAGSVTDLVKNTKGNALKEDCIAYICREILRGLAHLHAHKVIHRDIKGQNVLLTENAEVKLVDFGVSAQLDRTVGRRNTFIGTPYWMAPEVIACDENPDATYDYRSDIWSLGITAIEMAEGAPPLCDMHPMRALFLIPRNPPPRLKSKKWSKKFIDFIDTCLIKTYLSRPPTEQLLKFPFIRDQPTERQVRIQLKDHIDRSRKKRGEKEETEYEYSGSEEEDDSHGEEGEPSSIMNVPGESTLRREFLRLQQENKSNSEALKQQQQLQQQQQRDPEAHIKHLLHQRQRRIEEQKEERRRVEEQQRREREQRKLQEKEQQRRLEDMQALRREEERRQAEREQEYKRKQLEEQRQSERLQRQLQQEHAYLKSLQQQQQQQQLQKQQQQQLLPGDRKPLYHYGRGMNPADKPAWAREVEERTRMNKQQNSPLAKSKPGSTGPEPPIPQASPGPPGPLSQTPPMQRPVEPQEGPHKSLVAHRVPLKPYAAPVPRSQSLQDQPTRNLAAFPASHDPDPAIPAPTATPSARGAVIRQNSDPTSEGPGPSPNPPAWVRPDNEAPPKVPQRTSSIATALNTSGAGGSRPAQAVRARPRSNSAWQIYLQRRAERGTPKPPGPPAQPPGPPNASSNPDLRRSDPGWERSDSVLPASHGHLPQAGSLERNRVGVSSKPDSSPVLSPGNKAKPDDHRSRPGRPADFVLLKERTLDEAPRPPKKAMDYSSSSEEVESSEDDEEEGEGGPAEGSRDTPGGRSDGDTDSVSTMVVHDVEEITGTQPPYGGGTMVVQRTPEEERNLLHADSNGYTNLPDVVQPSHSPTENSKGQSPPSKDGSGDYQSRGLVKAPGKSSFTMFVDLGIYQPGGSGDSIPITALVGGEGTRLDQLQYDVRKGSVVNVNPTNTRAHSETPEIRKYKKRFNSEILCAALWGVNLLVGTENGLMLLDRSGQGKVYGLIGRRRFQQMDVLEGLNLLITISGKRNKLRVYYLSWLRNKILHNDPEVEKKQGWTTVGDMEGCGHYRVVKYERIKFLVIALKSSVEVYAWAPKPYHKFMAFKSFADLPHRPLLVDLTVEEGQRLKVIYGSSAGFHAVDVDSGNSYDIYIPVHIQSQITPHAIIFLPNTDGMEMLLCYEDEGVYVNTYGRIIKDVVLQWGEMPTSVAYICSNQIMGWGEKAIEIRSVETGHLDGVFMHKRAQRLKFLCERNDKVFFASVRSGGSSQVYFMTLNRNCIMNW
The target in data set [14] is Phosphorylase b kinase gamma catalytic chain, liver/testis isoform (Homo sapiens, UniProt P15735). In kind it is functional.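 Note: PHKG2 measured as one member of a kinome-wide kinase panel.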
For data set [15], the target named is Dual specificity protein kinase CLK2 (Homo sapiens, UniProt P49760). In kind it is functional.
Sequence of Dual specificity protein kinase CLK2 (P49760 whole entry): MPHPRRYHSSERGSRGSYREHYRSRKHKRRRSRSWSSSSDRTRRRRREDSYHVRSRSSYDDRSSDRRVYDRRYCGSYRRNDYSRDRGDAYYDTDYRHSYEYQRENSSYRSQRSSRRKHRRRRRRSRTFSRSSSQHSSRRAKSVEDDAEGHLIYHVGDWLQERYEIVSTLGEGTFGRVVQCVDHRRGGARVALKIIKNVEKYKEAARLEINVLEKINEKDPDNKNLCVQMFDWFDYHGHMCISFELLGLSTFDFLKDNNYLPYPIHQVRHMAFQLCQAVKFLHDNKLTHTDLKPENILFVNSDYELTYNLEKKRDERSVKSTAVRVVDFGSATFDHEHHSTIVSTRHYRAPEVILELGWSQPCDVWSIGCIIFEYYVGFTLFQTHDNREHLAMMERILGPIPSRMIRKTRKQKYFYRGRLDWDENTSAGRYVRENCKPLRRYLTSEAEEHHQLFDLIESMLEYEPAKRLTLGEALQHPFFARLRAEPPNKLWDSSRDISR
Data set [16] has as its target Serine/threonine-protein kinase Chk1 (Homo sapiens, UniProt O14757). In kind it is functional.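 Note: measured as one member of a kinome-wide kinase profiling panel.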
In data set [17] the target is Serine/threonine-protein kinase Nek2 (Homo sapiens, UniProt P51955). The class given is functional.
Sequence of Serine/threonine-protein kinase Nek2 (P51955 whole entry): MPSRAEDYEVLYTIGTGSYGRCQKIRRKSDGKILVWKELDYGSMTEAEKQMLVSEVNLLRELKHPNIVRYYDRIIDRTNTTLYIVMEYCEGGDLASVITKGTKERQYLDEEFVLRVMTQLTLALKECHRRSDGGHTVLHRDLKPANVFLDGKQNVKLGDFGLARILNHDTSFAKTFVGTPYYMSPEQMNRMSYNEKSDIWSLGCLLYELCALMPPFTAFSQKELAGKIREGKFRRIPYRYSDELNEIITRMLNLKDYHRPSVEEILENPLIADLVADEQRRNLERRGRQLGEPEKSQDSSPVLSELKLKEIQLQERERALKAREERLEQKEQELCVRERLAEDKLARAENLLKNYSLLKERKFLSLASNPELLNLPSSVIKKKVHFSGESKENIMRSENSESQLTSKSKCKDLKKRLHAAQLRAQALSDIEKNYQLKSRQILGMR
Data set [18] addresses Receptor tyrosine-protein kinase erbB-2 (Homo sapiens, UniProt P04626). The data set is described as follows: Navigating the Kinome. Panel member name: ERBB2. The class given is functional.
Data set [19] addresses Leukocyte tyrosine kinase receptor (Homo sapiens, UniProt P29376). Kind of data set: Navigating the Kinome. Panel member name: LTK. The class given is functional.
The target of the next data set is Activin receptor type-1 (Homo sapiens, UniProt Q04771). Kind of data set: Navigating the Kinome. Panel member name: ACVR1. In kind it is functional.
The nature of data set [20]: cytotoxicity toward HCT116 cells – cell-based, CellTiter-Glo luminescence, IC50, dose response (AID 1117332). The settings on record: HCT-116. In kind it is functional. (Cellular ATP, detected with luciferase, serves as a proxy for viable cell number.)
A further data set concerns the target T2, Leucine aminopeptidase (Plasmodium falciparum 3D7, UniProt Q8IL11).
T2 sequence (Q8IL11 whole entry): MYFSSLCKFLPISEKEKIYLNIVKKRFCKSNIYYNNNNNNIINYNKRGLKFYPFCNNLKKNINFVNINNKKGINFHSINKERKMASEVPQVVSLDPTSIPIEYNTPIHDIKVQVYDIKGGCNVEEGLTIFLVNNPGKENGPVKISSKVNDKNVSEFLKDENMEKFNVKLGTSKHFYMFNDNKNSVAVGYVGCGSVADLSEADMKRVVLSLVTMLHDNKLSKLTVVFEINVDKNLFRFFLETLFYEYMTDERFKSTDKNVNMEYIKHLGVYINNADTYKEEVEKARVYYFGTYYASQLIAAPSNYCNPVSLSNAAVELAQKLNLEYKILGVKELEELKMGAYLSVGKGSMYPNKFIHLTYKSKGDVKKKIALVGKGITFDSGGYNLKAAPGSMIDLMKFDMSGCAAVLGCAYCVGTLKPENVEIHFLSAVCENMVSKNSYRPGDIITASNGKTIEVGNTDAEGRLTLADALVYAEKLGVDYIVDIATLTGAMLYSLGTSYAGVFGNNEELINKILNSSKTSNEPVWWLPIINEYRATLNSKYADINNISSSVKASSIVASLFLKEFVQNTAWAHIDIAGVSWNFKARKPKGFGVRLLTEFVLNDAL
The data set is described as follows: P. falciparum M17LAP inhibitors, primary screen, biochemical, fluorogenic H-Leu-NHMec substrate, 1536-well (AID 1619). The class given is functional.

For data set [21], the target named is 1-acylglycerol-3-phosphate O-acyltransferase ABHD5/Perilipin-5 (Homo sapiens, UniProt Q00G26+Q8WTS1). The data set is described as follows: Luminescence-based biochemical high throughput dose response assay for inhibitors of the interaction of the lipase co-activator protein, abhydrolase domain containing 5 (ABHD5) with perilipin-5 (MLDP; PLIN5) (2K validation set). [Related pubchem assays (depositor defined):AID493035, AID493241].

Data set [22] in a line: rise of 4N DNA cells, HeLa – IC50, dose response (AID 1117351). The class given is functional, cell-based.
The target of a further data set is Cytochrome P450 2D6 (Homo sapiens, UniProt P10635).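 Note: CYP2D6 member of a cytochrome P450 panel assay.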
Sequence of Cytochrome P450 2D6 (P10635 whole entry): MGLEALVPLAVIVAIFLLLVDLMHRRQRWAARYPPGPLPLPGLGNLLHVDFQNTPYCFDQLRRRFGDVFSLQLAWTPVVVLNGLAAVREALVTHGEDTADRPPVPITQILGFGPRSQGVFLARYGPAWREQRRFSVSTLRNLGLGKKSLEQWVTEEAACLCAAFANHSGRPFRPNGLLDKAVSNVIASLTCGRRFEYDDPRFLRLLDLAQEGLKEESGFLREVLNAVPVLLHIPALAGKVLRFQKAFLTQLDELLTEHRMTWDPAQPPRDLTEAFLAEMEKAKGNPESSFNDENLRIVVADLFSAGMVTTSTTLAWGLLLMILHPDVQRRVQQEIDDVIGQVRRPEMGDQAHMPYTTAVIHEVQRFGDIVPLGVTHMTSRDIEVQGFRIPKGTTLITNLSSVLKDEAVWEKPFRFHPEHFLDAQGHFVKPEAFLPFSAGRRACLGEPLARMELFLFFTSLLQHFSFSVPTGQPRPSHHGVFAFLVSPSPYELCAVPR

Sequence of Mitogen-activated protein kinase 13 (O15264 whole entry): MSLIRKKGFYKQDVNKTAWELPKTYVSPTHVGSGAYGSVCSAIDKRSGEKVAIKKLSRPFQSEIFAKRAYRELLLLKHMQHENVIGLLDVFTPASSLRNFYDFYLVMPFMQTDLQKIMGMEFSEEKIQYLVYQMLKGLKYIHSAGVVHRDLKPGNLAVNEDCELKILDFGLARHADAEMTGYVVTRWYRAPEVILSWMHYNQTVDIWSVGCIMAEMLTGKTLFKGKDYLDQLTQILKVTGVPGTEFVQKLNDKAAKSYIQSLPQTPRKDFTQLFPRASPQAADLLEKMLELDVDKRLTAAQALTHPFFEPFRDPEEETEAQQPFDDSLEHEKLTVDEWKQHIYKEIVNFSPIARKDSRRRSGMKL
Sequence of Receptor tyrosine-protein kinase erbB-2 (P04626 whole entry): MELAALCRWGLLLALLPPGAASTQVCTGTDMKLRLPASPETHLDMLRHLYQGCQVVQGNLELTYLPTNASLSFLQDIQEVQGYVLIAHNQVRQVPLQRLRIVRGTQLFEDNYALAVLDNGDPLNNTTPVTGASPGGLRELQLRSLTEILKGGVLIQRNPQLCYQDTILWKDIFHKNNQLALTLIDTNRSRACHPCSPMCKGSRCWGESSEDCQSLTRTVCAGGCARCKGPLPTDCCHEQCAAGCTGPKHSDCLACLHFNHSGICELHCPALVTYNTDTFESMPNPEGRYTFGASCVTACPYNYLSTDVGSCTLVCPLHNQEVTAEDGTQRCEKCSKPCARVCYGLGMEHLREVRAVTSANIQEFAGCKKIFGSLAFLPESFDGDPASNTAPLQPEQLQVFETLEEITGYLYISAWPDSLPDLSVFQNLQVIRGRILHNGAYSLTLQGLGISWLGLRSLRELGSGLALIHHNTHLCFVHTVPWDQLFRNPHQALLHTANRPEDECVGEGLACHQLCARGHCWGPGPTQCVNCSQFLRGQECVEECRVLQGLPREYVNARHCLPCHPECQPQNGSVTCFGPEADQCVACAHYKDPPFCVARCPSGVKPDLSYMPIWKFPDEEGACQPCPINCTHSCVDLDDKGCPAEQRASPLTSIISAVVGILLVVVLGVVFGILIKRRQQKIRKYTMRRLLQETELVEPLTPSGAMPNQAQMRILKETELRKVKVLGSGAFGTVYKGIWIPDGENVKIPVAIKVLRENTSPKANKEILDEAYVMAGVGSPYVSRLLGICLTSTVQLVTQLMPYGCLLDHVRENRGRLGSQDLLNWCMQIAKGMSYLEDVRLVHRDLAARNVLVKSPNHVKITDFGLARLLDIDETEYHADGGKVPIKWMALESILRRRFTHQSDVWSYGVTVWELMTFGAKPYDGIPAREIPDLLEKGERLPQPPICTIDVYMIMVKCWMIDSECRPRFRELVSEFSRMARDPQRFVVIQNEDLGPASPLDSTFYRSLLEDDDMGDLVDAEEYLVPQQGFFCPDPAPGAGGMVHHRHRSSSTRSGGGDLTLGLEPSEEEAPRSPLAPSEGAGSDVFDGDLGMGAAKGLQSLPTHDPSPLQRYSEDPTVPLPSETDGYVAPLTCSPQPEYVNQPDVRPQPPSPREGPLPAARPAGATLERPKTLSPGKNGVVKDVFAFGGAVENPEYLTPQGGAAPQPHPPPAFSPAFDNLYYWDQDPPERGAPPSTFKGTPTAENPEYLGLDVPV
Sequence of Serine/threonine-protein kinase Chk1 (O14757 whole entry): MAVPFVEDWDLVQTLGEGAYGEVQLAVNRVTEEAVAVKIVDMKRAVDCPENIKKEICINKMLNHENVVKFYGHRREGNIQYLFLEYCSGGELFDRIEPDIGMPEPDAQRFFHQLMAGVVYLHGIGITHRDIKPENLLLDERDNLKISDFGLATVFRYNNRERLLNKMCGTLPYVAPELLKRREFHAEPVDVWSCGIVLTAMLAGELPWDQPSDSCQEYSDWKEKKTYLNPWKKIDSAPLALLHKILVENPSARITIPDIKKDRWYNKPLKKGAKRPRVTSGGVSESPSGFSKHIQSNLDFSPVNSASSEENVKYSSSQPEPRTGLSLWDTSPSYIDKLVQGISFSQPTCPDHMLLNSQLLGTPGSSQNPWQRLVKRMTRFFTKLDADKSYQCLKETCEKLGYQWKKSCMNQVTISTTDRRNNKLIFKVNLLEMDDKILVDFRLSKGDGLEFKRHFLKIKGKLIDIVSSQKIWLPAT

One may read the IC50 as the concentration that gives 50% inhibition. By EC50 is commonly meant the concentration at which the effect is half-maximal. Low readings indicate an effect from little substance, high ones a need for much substance. For the compound `O=C1C=C(N2CCOCC2)c2ccccc2C1=O`, the values for the IC50 in the data set with HEK293 and on Cysteine protease ATG4B were > 20 µM (inactive) and 7.07 µM (active), respectively. Further, the EC50 in data set [1] is > 120 µM (not active).
Usually Ki stands for a measure of affinity in units of concentration, obtained from inhibition or displacement. Turning to `N#Cc1ccc2[nH]c(O)c(-c3ccc(CN4CCOCC4)cn3)c2c1` [AZD-1080], the Ki in data set [2] is > 2 µM (inactive); in data set [3] it was > 3.98 µM (inactive); in [4], > 3.98 µM (inactive); in [5], > 3.98 µM (inactive); in [6], > 10 µM (inactive); in [7], 1 µM (active). The Ki at Aurora kinase B was > 3.16 µM (inactive); in data set [8], > 7.94 µM (inactive); in data set [9], > 1.58 µM (inactive); on Activated CDC42 kinase 1, > 3.98 µM (inactive); in data set [10], > 3.16 µM (inactive); in [11] it was > 3.98 µM (inactive). The Ki was > 2 µM (inactive) in [12]; > 10 µM (inactive) in data set [13]; 6.31 µM (active) on Misshapen-like kinase 1; > 5.01 µM (inactive) in [14]; > 5.01 µM (inactive) in [15]; > 7.94 µM (inactive) in data set [16]. Moreover, the Ki was > 10 µM (inactive) in [17], > 1.58 µM (inactive) in data set [18], > 2.51 µM (inactive) in data set [19] and > 3.98 µM (inactive) on Activin receptor type-1.
As to `CCc1oc2ccccc2c1C(=O)c1cc(Br)c(O)c(Br)c1` [BENZBROMARONE], the IC50 is 1.06 µM (active) in data set [20], 81.9 µM (active) on Leucine aminopeptidase, 18.8 µM (inactive) in data set [21] and > 10 µM (inactive) in [22]. Besides, the AC50 result on Cytochrome P450 2D6 is “inactive”.
